This is an account of results in a melting point compilation (Tetko et al.; mined from patent text by program, amines drawn as free bases though some values may be those of a salt).

Molecules are shown by their SMILES. Where only a bound is given, the exact number is not on record here.

On to `FC(F)(F)c1ccc(Cn2cnc3c(-c4ccco4)ncnc32)cc1`, for which the melting point fell in the range of 159 to 161 °C.

As to `OC(CCl)COc1cccc2sncc12` (stereo unspecified), the melting point was in the range of 104 to 106 °C.

Consider `CCOC(=O)C(CC(=O)c1ccccc1Cl)(NC(C)=O)C(=O)OCC`, for which the melting point lay in the range of 157 to 158 °C.

For `CCOc1ccccc1-c1cc(NC(=O)C2CCN(CC)CC2)ncn1`, the melting point is 65 to 67 °C.

`CCCCS(=O)(=O)Nc1nc(CN2CCN(C(c3ccccc3)c3ccccc3)CC2)cs1` yielded a melting point of 185 to 187 °C.

On to `CCCc1c(OS(=O)(=O)N(C)C)cc2oc3cc(Cl)cn3c(=O)c2c1O`, for which the melting point lay within 159 to 160 °C.

`COc1ccc(Nc2ccc(Nc3ncnc4cc(-c5ccccc5)sc34)cc2)cc1OC` returned a melting point of 160 to 161 °C.

Consider `Cn1ncnc1-c1ccc(C(=O)C(=O)N2Cc3cccn3Cc3ccccc32)c(Cl)c1`, for which the melting point lay within 141 to 143 °C.

Consider `Cc1cc(NNC(=O)OC(C)(C)C)nnc1-c1cccc([N+](=O)[O-])c1`, for which the melting point lay in the range of 160 to 162 °C.

For the compound `CCCCc1ccc(NC(N)=S)cc1`, the melting point lay within 123 to 125 °C.

With `C#Cc1cn(C2OC(CO)C(O)C2=C)c(=O)[nH]c1=O` (stereo unspecified), the melting point fell in the range of 172 to 174 °C.

For `CC(C)=CCOc1c(I)cc(C(C)O)nc1Cl` (stereo unspecified), the melting point was in the range of 80 to 81 °C.

The compound `Cn1c(=O)c(S(C)(=O)=O)c(N2CCN(C(=O)c3cccs3)CC2)c2ccccc21` returned a melting point of 224 °C.

On to `CCOC(Nc1ccccc1)(OCC)c1cc(C(=O)c2ccc(Cl)cc2)nc(C)c1Cl`, for which the melting point fell in the range of 156 to 157 °C.

`C=C(C)C(=O)OC(COc1ccc(C(=O)c2ccccc2)c(O)c1)COc1ccc(C(=O)c2ccccc2)c(O)c1` showed a melting point of 138 to 139 °C.

Turning to `O=C(O)CN1C(=O)C=CC1=O`, the melting point was 110 °C.

Turning to `COc1nc(C(Cl)(Cl)Cl)c(Cl)c(OC)c1Cl`, the melting point lay within 67 to 69 °C.

`Cc1ccnc2ccc(C(=O)c3ccc(Cl)cc3)cc12` gave a melting point of 114 °C.

Turning to `CC(=NO)c1ccc2c(c1)C(c1ccccc1F)=NC(C)C(=O)N2C` (stereo unspecified), the melting point lay in the range of 101 to 103 °C.

Take `COc1cc(C)c(C=CC(C)=CC=C(C)C(=O)O)cc1C`: the melting point lay in the range of 222 to 224 °C.

Consider `O=C(C1=C(c2ccccc2)c2ccc(O)cc2C1)c1ccc(O)cc1`, for which the melting point lay within 191 to 192 °C.

`C#CCOc1ccc2c(c1)c(-c1ccc(C(C)C)cc1)nc(=O)n2Cc1cccc(NC(=O)CCl)c1`: the melting point was in the range of 170 to 172 °C.

In turn, `O=c1c(CCCc2ccccn2)cc2cccnc2n1-c1cccc([N+](=O)[O-])c1` gave a melting point of 201 to 202 °C.

In the case of `COc1ccc(C2CN(O)C3(c4ccccc4)CCCCC23)cc1OC` (stereo unspecified), the melting point was 166 to 168 °C.

On to `CCC(CNC(=S)Nc1cccc(-c2c[nH]cn2)c1)N(Cc1ccc(Cl)c(Cl)c1)c1ccc(Br)cn1` (stereo unspecified), for which the melting point was 140 to 160 °C.

Turning to `NS(=O)(=O)c1cc2c(s1)S(=O)(=O)C(CCO)CN2` (stereo unspecified), the melting point fell in the range of 158 to 160 °C.

As for `COCC(=O)Nc1ccc(C2=NNC(=O)C3CC23)cc1` (stereo unspecified), the melting point turned out to be 206 °C.

As to `O=c1[nH]c(=O)n(Cc2ccccc2)cc1C(F)(F)F`, the melting point is 194 to 195 °C.

As for `CCOC(=O)c1cnc2n(c1=O)CCC(C)C2=NNc1ccccc1` (stereo unspecified), the melting point was in the range of 108 to 110 °C.

`NC1CCc2cc3c(cc2C1)OCC3` (stereo unspecified): the melting point was 60 °C.

In the case of `O=C1CSCC(c2ccc(F)cc2)N1` (stereo unspecified), the melting point is 111 to 112 °C.

As for `O=Cc1c(O)cc(O)cc1CCl`, the melting point lay in the range of 164 to 166 °C.

For `Cc1n[nH]c2cc(-c3ccc4nnn(Cc5ccc6ncccc6c5)c4n3)ccc12`, the melting point lay in the range of 136 to 137 °C.

Regarding `COC(=O)c1ccccc1-c1cc(-c2ccc(OC)cc2)n(C(C)=O)n1`, the melting point lay in the range of 119 to 121 °C.

As to `Nc1ccc(C=Cc2nc3ccccc3nc2C=Cc2ccc(N)cc2)cc1`, the melting point was in the range of 227 to 228 °C.

As to `O=C(O)c1cc(-c2ccccc2)cc2c(-c3ccccc3)c(Br)oc12`, the melting point lay in the range of 232 to 236 °C.

`O=C(Nc1cccc(S(=O)(=O)CCO)c1)c1cnn2c(C(F)(F)F)cc(-c3ccc(C(F)(F)F)cc3)nc12`: the melting point is 237 °C.

`CN(C)c1ccc(C2OC(C)(C)N=C2c2cccc(Cl)c2)cc1` (stereo unspecified) had a melting point of 96 to 97 °C.

In the case of `Cc1oc(-c2ccccc2)nc1COc1ccc(Cn2cc(C=O)c(-c3ccccc3)c2)cc1`, the melting point fell in the range of 117 to 118 °C.

Compound `CN(C)CCN1C(=O)N2[C@H](c3cccc(O)c3)c3[nH]c4ccc(Cl)cc4c3C[C@@]2(C)C1=O` (racemic) came in with a melting point of 283 to 286 °C.

`CCNC1CCN(c2nc(N3CCOCC3)c3ncnc(N(C)Cc4ccccc4)c3n2)CC1` displayed a melting point of 92 to 94 °C.

The compound `c1ccc(N2CC3CCC(C2)O3)cc1` displayed a melting point of 84 to 85 °C.

For `O=S(=O)(c1ccc(Cl)cc1)C(c1cc(F)ccc1F)c1cc(Cl)ncc1Cl` (stereo unspecified), the melting point was 147 to 148 °C.

Compound `Cc1c(OCc2ccccc2)c(=O)ccn1CCOC(=O)C(C)(C)C` yielded a melting point of 103 to 106 °C.

Regarding `COc1ccccc1N1CCN(CCn2c(=O)[nH]c3sc(C)c(C)c3c2=O)CC1`, the melting point was 196 to 197 °C.

Take `CC(C)NCC(O)COc1ccc(CCOCC2CCC2)cc1` (stereo unspecified): the melting point was in the range of 62 to 63 °C.

Take `NC(=O)Cn1c(=O)c(=O)[nH]c2ccccc21`: the melting point is over 300 °C.

Consider `CNC(=NCCSCc1nc[nH]c1C)S(=O)(=O)O`, for which the melting point fell in the range of 162 to 164 °C.

Consider `CS(=O)(=O)c1nccc(Oc2ccccc2)n1`, for which the melting point lay in the range of 113 to 116 °C.

The compound `O=C(NCc1ccccc1)c1ccc(-c2ccc3nnn(Cc4ccc5ncccc5c4)c3n2)cc1F` registered a melting point of 163 to 165 °C.

Consider `CN1CCN(C(=O)Oc2ccc([N+](=O)[O-])cc2)CC1`, for which the melting point was in the range of 134 to 135 °C.

`Cc1cc(C)c(Nc2nc(C)ccc2S(=O)(=O)c2ccc(OCCCCC#N)cc2)c(C)c1` registered a melting point of 115 to 116 °C.

Consider `CC12CC(=CO)C(=O)C=C1CCC1C2CCC2(C)C1C=CC2(C)O` (stereo unspecified), for which the melting point is 176 °C.

`O=C(CCCN1C(=O)c2ccccc2C1=O)Nc1nnc(SCc2ccccc2)s1` had a melting point of 128 to 131 °C.

Compound `CCCCc1nc(C(O)CC)c(C(N)=O)n1Cc1ccc(-c2ccccc2C(=O)O)cc1` (stereo unspecified) registered a melting point of over 120 °C.

The compound `C[C@H]1C(=O)Nc2c(N)cc(Cl)cc2N1C(=O)OCc1ccccc1` came in with a melting point of 152 to 154 °C.

In the case of `CCOC(=O)N1CCc2[nH]cc3c(=O)n(-c4ccc(Cl)cc4)nc-3c2C1`, the melting point lay within 357 to 359 °C.

Take `CC(C)(C)O[C@@H]1C[C@H]2C(=O)O[C@H](C(Cl)(Cl)Cl)N2C1`: the melting point came out at 147 °C.

As to `COc1cccc(OC)c1-c1cc(C(=O)O)nn1-c1ccc(C(N)=O)cc1C`, the melting point lay within 275 to 276 °C.

Turning to `CC(C)N(C1CCCC1)S(=O)(=O)N[C@@H](Cc1ccc(NC(=O)c2c(Cl)cncc2Cl)cc1)C(=O)O`, the melting point turned out to be 157 °C.

The compound `COC(=O)c1ccccc1Cn1ccc(OCc2ccc(F)cc2)c(Br)c1=O` gave a melting point of 161 to 165 °C.

As for `NC(=O)c1c(Cl)c(-c2ccccc2)n2c1CN(C(=O)CCC1CCCCC1)CC2`, the melting point is 181 to 182 °C.

The compound `N#Cc1ccc(C(=O)N2CCN(C(=O)C3CCN(c4ccncn4)CC3)CC2)cc1` yielded a melting point of 192 to 193 °C.

In turn, `Cc1ccc(N=Nc2ccc(-c3ccc(-c4ccc(N=Nc5ccc(C)cn5)cc4OC(C)C)o3)c(OC(C)C)c2)nc1` yielded a melting point of 185 to 194 °C.

Turning to `CC(C)n1nc(-c2sc(NC(=O)CCN3CCOCC3)nc2-c2ccccc2)ccc1=O`, the melting point lay in the range of 197 to 198 °C.

With `OP(O)C(NC(c1ccccc1)c1ccccc1)c1ccc2ccccc2c1` (stereo unspecified), the melting point was 205 to 207 °C.

In turn, `CCOC(=O)c1cnc(CCOC)nc1NCc1ccc(-c2ccccc2-c2nnn[nH]2)cc1` gave a melting point of 122 to 124 °C.

For `O=C(NC1CCCN(Cc2ccccc2)C1)c1ccc2[nH]ncc2c1` (stereo unspecified), the melting point is 203 to 204 °C.

`CSC(=S)OC(C(=O)O)c1ccccc1` (stereo unspecified) gave a melting point of 109 to 110 °C.

`CCCCCS(=O)(=O)NC(=O)OCCCc1ccc(OCCOC)cc1Oc1ncc(C(F)(F)F)cc1Cl` yielded a melting point of 97.5 to 99 °C.

In turn, `CCCc1c(O)c(Cl)cc(C(=O)OC)c1O` displayed a melting point of 75 to 76 °C.

For `CN(C)/C=C/C(=O)c1ccc(C(F)(F)F)cc1`, the melting point lay within 96.5 to 98 °C.

In the case of `CC(C)C1Cc2cnc3c(c2C1(O)CC#N)CCO3` (stereo unspecified), the melting point was 169 to 170 °C.

The compound `O=[N+]([O-])c1cnc2ccc(Br)cn12` showed a melting point of 160 to 161 °C.

In turn, `CC1(C)OC(=O)Nc2ccc(-c3ccccc3-c3ncsn3)cc21` came in with a melting point of 214 to 216 °C.

On to `Cc1nn(Cc2ccccc2)c2c1c(=O)n(-c1ccccc1)c1ncccc21`, for which the melting point is 274 to 276 °C.

In turn, `CCS(=O)(=O)CC(=O)Nc1c(C)cccc1C` displayed a melting point of 128 to 130 °C.

In turn, `COC(=O)c1nn(C2CCCCO2)cc1NC(=O)c1ccc(C)nc1` (stereo unspecified) returned a melting point of 142 to 143 °C.

Take `CN1CCN(c2cccc(CS(=O)(=O)c3ccccc3)c2[N+](=O)[O-])CC1`: the melting point is 180 to 182 °C.

`Cn1cc(C2=C(c3cn(CCCC#N)c4ccccc34)C(=O)NC2=O)c2ccccc21` gave a melting point of 245 to 247 °C.

On to `CCCCCN1C(=O)C(CO)(c2ccc3c(c2)OCO3)c2ccccc21` (stereo unspecified), for which the melting point was in the range of 110 to 113 °C.

Compound `NS(=O)(=O)c1ccc(-n2nc(C(F)(F)F)cc2-c2ccc(Cl)cc2)cc1` came in with a melting point of 126 to 128 °C.

In the case of `COC12CC(C)(c3nnc(-c4cncc(Br)c4)o3)CN(C)C1Cc1cn(C)c3cccc2c13` (stereo unspecified), the melting point lay in the range of 171 to 174 °C.

`CN(C)c1ccc(-c2cccc(OC3SCC(O)C(O)C3O)c2)cn1` (stereo unspecified) had a melting point of 119 °C.

In turn, `CC(=O)OCC(=O)C1(O)C(C)CC2C3CCC4=CC(=O)C=CC4(C)C34OC4CC21C` (stereo unspecified) returned a melting point of 180 to 186 °C.

The compound `CCSc1nc2c(C)sc(C(=O)O)c2n1Cc1ccc(-c2ccccc2-c2nc(=O)[nH]o2)cc1` had a melting point of 144 to 147 °C.
